Experimental data reported in patent US20140328940A1, “MODULATION OF AXON DEGENERATION” (Genentech, Inc., priority 2009, published 2014).
pIC50: −log10 of the molar value. Entries after “also recorded” stand apart in the source; their conditions may differ.

Tests used:
[1] = test system: DRG neurons (axon vs. cell body compartment); test: Campenot chamber local axon degeneration (anti-NGF in axon compartment); type: cell-based, mouse
Method: Teflon dividers (Tyler Research) were cleaned by washing in water and wiping them clean of any residual grease. Dividers were then soaked in Nochromix (Godax Laboratories)/sulfuric acid overnight, rinsed five times in distilled and autoclaved water (SQ water), boiled for 30 minutes, and then air-dried before use
Mouse laminin (5 μg/ml in sterile filtered water; Invitrogen) was added to PDL coated 35 mm dishes (BD Biosciences) and they were incubated for 1 hour at 37° C., followed by two rinses in SQ water. The dishes were vacuum-dried and then air-dried in a laminar flow hood for 15 minutes. Prepared dishes were then scored with a pin rake (Tyler Research). […] High vacuum grease (VWR) was added to each Teflon divider under a dissection scope. The laminin coated PDL dishes were inverted and dropped onto the Teflon divider, with additional pressure added by use of a toothpick in the non-track-containing regions. Dishes were incubated for 1 hour at 37° C. Five hundred microliters of NBM+MC (50 ng/ml NGF) solution was added to each of the side compartments, and a grease barrier was added in front of the center cell slot.
Free E13.5 spinal cords were dissected from mouse embryos and placed into NBM+MC (25 ng/ml NGF) solution. DRGs were detached from the spinal cord with a tungsten needle. An NBM+MC-lubricated P200 pipette was used to move DRGs into a 1.5 ml tube. DRGs were pelleted with a tabletop centrifuge for 30 seconds. The supernate was discarded and 0.05% Trypsin/EDTA (cold) was added. The pellet was resolubilized with a pipette and incubated at 37° C. for 15 minutes with constant agitation (650 RPM). The sample was again centrifuged and the supernate discarded. The pellet was resuspended in warm NBM+MC (50 ng/ml NGF) solution and triturated with a flamed glass pipette 20 times, followed by trituration with a fire-bored glass pipette another 20 times. The samples were again centrifuged and the resulting pellets were resuspended in 0.5 ml NBM+MC (50 ng/ml NGF) solution. The cells were diluted to a final concentration of 2.5×10^6 cells/ml. The cell suspensions were loaded into a 1 ml syringe with a 22 gauge needle. The center slot of the Campenot divider was filled using the syringe (to a volume of at least 50 μl). The Campenot chamber was incubated overnight at 37° C. 2.5 ml NGF+MC (50 ng/ml NGF) solution was added to the center compartment and the grease gate was removed. The outer medium (cell body compartment) was replaced after three days with 2.5 ml NBM+MC medium (with 25 ng/ml NGF). After five days in culture, one distal compartment was washed three times with warmed NBM+MC (no NGF) solution. After the third wash, 500 μl NBM+MC (no NGF) solution was added to the axon compartment in combination with either 0.5% DMSO or an inhibitor. The cell body compartment was replaced with 2.5 ml NBM+MC medium (with 25 ng/ml NGF) containing either 0.5% DMSO or inhibitor.
After 28 hours of anti-NGF antibody treatment, 8% PFA/30% sucrose solution (see above) was added directly to the culture medium at a 1:1 dilution and incubated for 30 minutes. The Teflon divider was removed after the first 15 minutes of addition. The system was washed once with 2.5 ml PBS prior to immunostaining. Neurons were blocked in 5% BSA/0.2% triton in PBS for 30 minutes. The primary antibody Tuj1 (Covance) was added to a final dilution of 1:1000 in PBS containing 2% BSA and incubated overnight at 4° C. The dish was washed once with PBS. […] The dish was washed twice with PBS, and a 22×22 mm coverslip (VWR) was added with 350 μl of fluoromount G (Electron Microscopy Sciences). The neurons were visualized by use of a fluorescence microscope.
As described above, E13.5 DRGs were isolated and grown for 5 days in a Campenot chamber.

[2] = test system: cerebellar granule neurons (CGNs); test: serum deprivation/KCl reduction degeneration of cerebellar granule neurons; type: cell-based, mouse; details: 5 μM; 5 mM KCl, 24 hours
[3] = test system: p38 MAPK; details: LPS-induced TNF-alpha production, human monocytes; published source; read-out: Cellular IC50; cited from earlier work
[4] = test system: CaMKK; details: CaMKK activity after ionomycin stimulation, transfected HeLa cells; published source; read-out: Cellular IC50; cited from earlier work
[5] = test system: DRGs; test: anti-NGF antibody (NGF withdrawal) screen for inhibitors of axon degeneration in DRG explants; type: cell-based, mouse; details: inhibitor 100 μM or 10 μM added 1 hour before 25 μg/ml anti-NGF; 20 hours; actin stain
Method: The anti-NGF antibody model described above in Example 1 was used in a screen for inhibitors of neuron or axon degeneration. A library of more than 400 small molecules (Tocris Bioscience) was tested to see which, if any, modulate degeneration observed in the presence of anti-NGF antibodies.
Mouse E13.5 embryos were dissected and placed into L15 medium (Invitrogen). The spinal cord was dissected out from the embryos with DRGs attached. The spinal cords with DRGs attached were placed into L15 medium+5% goat serum (Gibco) on ice. The DRGs were removed using a tungsten needle and the remaining spinal cord was disposed of. Eight well slides were filled with N3-F12 solution (23 ml Ham's F12, 1 ml N3 supplement, and 1 ml 1 M glucose) to which was added 25 ng/ml NGF (Roche). (N3 supplement was made by dilution of N3 100× concentrate, which was made by mixing the following ingredients, in the following order: 5.0 ml Hank's buffered saline solution (HBSS; Ca, Mg free; Invitrogen), 1.0 ml bovine serum albumin (10 mg/ml in HBSS=150 μm), 2.0 ml Transferrin (T1147-1G, human, 100 mg/ml in HBSS=1.1 mM), 1.0 ml sodium selenite (S9133-1MG, 0.01 mg/ml in HBSS 58 μM), 0.4 ml putrescine dihydrochloride (P5780-5G, 80 mg/ml in HBSS=500 mM), 0.2 ml progesterone (P8783-5G, 0.125 mg/ml in absolute ethanol=400 μM), 0.02 ml corticosterone (C2505-500MG, 2 mg/ml in absolute ethanol=5.8 mM), 0.1 ml triiodothyonine, sodium salt (T6397-100MG, 0.2 mg/ml in 0.01 N NaOH=300 μM), 0.4 ml insulin (16634-250MG, bovine pancreas, 241 U/mg, 25 mg/ml in 20 mM HCl=4.4 mM), for a total volume of 10.02 ml (can be stored at −20° C.). An N3 supplement stock was made by combining the following: 10 ml Pen/Strep (100×, Gibco), 10 ml glutamine (200 mM, Gibco), 10 ml MEM vitamins (100×, Gibco), 10 ml N3 concentrate (100×, see above), for a total volume of 40 ml. The mixture was filter sterilized using a 0.22 μm filter, and 1-2 ml aliquots were stored at −20° C.).
The DRGs were sectioned into halves and placed in the center of each well of an 8-chamber slide (BD Biocoat PDL/Laminin coated glass, Becton Dickinson). The DRGs were permitted to attach to the slide at room temperature for 5-10 minutes, followed by an overnight incubation at 37° C. Inhibitors of choice were added at a concentration of 100 μM (top row) or 10 μM (bottom row) 1 hour before adding anti NGF antibodies. The anti-NGF antibodies were added to the right half of the slide (4 wells) at a concentration of 25 μg/ml. After incubation for 20 hours at 37° C., the slides were fixed with 30% sucrose/8% paraformaldehyde (PFA) by adding 250 μl of the fix solution directly to the 250 μl of culture medium. (To make the 30% sucrose/8% PFA solution, the following ingredients were added to a 600 ml beaker including a stir bar: 250 ml 16% PFA (cat#15710-S, Electron Microscopy Sciences), 50 ml 10×PBS pH 7.4, and 150 g sucrose. The solution was mixed under low heat until dissolved, and then 6-8 drops of 1 M NaOH were added to bring the pH to 7.4. The volume was then brought to 500 ml with water in a graduated cylinder. The solution was mixed well, placed in aliquots, and frozen.) The s ides were fixed for 30 minutes, followed by washing once with PBS. All cells were labeled with an actin stain (Alexa-568 conjugated phalloidin; 1:40; Invitrogen), a membrane dye (DiO; 1:200; Invitrogen), and a DNA stain (Hoechst 33258; 1:10,000; Invitrogen) in 0.1% Triton and 1% goat serum for 2 hours at room temperature. […]

| Structure (SMILES) | formation of varicosities in locally NGF-deprived axons ([1]; 30 μM SB415, 15 μM Act D in cell body compartment, 10 μM AG555, 30 μM SB239 in axon compartment) | Axon Compartment (protection of NGF-deprived axons) ([1]; inhibitor 5 μM in axon compartment) | Cell Body Compartment (protection of NGF-deprived axons) ([1]; inhibitor 5 μM in cell body compartment) | Axon Compartment (protection of NGF-deprived axons) ([1]; inhibitor 30 μM in axon compartment, anti-NGF on axons 28 hours, number in parentheses not explained) | Axon Compartment (protection of NGF-deprived axons) ([1]; inhibitor 30 μM in axon compartment, anti-NGF on axons 28 hours, number in parentheses not explained, listed as SB239) | Cell Body Compartment (protection of NGF-deprived axons) ([1]; inhibitor 30 μM in cell body compartment, anti-NGF on axons 28 hours, number in parentheses not explained) | Cell Body Compartment (protection of NGF-deprived axons) ([1]; inhibitor 30 μM in cell body compartment, anti-NGF on axons 28 hours, number in parentheses not explained, listed as SB239) | protection of cerebellar granule neurons from serum deprivation/KCl reduction [2] | pIC50 [3] | Axon Compartment (protection of NGF-deprived axons) ([1]; inhibitor 15 μM in axon compartment) | Cell Body Compartment (protection of NGF-deprived axons) ([1]; inhibitor 15 μM in cell body compartment) | pIC50 [4] | Comments (observations on compounds found to protect against neurodegeneration) [5] |
| --- | --- | --- | --- | --- | --- | --- | --- | --- | --- | --- | --- | --- | --- |
| COc1nccc(-c2c(-c3ccc(F)cc3)ncn2C2CCC(O)CC2)n1 (centres unmarked) [SB239063] | fewer varicosities | Yes (1) | No (1) | Yes (3) | did not degenerate; also recorded: protected from local degeneration | No (3) | failed to prevent degeneration | protect | 6.46 |  |  |  |  |
| O=C(O)c1ccc2c3c1cccc3c(=O)n1c3ccccc3nc21 [STO-609] |  |  |  |  |  |  |  | protect |  | Yes (1) | No (1) | 5.52 | Partial |
